{"source": "patent US7488577B2", "about": "“Method for measuring DNA polymerization and applications of the method” (Cavidi Tech AB, priority 2001, dated 2009)", "key": {"[1]": {"test_system": "T69S→SS/L210W/T215Y HIV-1 mutant RT", "assay": "Inhibition of second strand synthesis on variable DNA template, standard reaction solution versus reaction solution with ATP", "assay_type": "biochemical", "settings": "4 pg/well RT, 19 hours", "experimental": "The procedure for production of recombinant HIV-1 RTs with AZT specific mutations were similar but the mutations were introduced into the RT-coding region from the HXB2-D isolate.\nThe DNA polymerase γ and Retro DNA polymerase reaction mixture was reinforced with 3.2 mM ATP and pH was adjusted to 7.1.\nThe duration of the polymerization reactions was 19 hours. The RT activities obtained were recalculated into % of the activity of the same RT incubated in absence of inhibitor.\nSymbols: HIV-1 wild type RT in standard DNA polymerase reaction solution (◯). HIV-1 wild type RT in DNA polymerase reaction solution with ATP (●), T69S→SS/L210W/T215Y HIV-1 mutant RT in standard DNA polymerase reaction solution (⋄),\nT69S→SS/L210W/T215Y HIV-1 mutant RT in DNA polymerase reaction solution with ATP(♦)."}, "[2]": {"molecular_target": "T1, recombinant HIV 1 RT wild type (Human immunodeficiency virus type 1 group M subtype B, UniProt P03366)", "assay": "biochemical", "source_text": "The DNA-polymerase assay is based on a short primer with a specific sequence that is covalently bound to the wells of a 96 well microtiter plate. The reaction mixture contains a single stranded deoxynucleotide template with a part of the sequence complementary to the primer and the four deoxynucleoside triphosphates. Thymidine triphosphate is, however, replaced by 5-bromodeoxyuridine 5′-triphosphate (BrdUTP). The amount of bromodeoxyuridine monophosphate (BrdUMP) incorporated into DNA during the polymerase reaction, is detected with an alkaline phosphatase (Ap) conjugated anti-BrdU monoclonal antibody. An Ap substrate, 4-methylumbelliferyl phosphate, is used for fluorimetric product detection.\nThe inhibition studies were performed in a modified DNA polymerase assay. The drugs were serially diluted in five steps and 25 μl aliquots were transferred to each well in the microtiter plate, mixed with 100 μl DNA polymerase reaction mixture and the enzyme reaction was initiated by addition of 25 μl enzyme dilution. […] The polymerase reaction was allowed to proceed over-night (16-24 hours at 33° C.). Thereafter the reaction was terminated by a wash of the plate.\nThe polymerase activity at each inhibitor concentration was recalculated into % of the activity of a control in absence of inhibitor. The results are depicted in FIG. 3.\n(§1) The effects of three non-nucleoside inhibitors on indicated recombinant HIV 1 RT were determined according to “Protocol for determination of inhibition of second strand synthesis on variable DNA template” using DNA polymerase γ and Retro DNA polymerase base buffer and “Protocol for determination of inhibition of reverse transcription ” respectively."}, "[3]": {"molecular_target": "T1, recombinant HIV 1 RT wild type", "assay": "biochemical", "design": "The mutated and native forms of RT were isolated as previously described; made in house", "settings": "IC50 on template prA, RT type wt, first strand synthesis, 2 hours", "experimental": "In short, poly(rA) covalently bound to the wells of a 96 well microtiter plate serves as template for the incorporation of 5-bromodeoxyuridine 5′-triphosphate (BrdUTP) during the reverse transcription step at 33° C. The amount of bromodeoxyuridine monophosphate (BrdUMP) incorporated into DNA, is detected with an alkaline phosphatase (Ap) conjugated anti-BrdU monoclonal antibody. An Ap substrate, 4-methylumbelliferyl phosphate, is finally used for fluorimetric detection.\nas §1"}, "[4]": {"molecular_target": "T2, recombinant DNA polymerase III (Staphylococcus aureus, UniProt P0C1P9)", "T2 construct": "made in house", "T2 sequence (P0C1P9 1-1435)": "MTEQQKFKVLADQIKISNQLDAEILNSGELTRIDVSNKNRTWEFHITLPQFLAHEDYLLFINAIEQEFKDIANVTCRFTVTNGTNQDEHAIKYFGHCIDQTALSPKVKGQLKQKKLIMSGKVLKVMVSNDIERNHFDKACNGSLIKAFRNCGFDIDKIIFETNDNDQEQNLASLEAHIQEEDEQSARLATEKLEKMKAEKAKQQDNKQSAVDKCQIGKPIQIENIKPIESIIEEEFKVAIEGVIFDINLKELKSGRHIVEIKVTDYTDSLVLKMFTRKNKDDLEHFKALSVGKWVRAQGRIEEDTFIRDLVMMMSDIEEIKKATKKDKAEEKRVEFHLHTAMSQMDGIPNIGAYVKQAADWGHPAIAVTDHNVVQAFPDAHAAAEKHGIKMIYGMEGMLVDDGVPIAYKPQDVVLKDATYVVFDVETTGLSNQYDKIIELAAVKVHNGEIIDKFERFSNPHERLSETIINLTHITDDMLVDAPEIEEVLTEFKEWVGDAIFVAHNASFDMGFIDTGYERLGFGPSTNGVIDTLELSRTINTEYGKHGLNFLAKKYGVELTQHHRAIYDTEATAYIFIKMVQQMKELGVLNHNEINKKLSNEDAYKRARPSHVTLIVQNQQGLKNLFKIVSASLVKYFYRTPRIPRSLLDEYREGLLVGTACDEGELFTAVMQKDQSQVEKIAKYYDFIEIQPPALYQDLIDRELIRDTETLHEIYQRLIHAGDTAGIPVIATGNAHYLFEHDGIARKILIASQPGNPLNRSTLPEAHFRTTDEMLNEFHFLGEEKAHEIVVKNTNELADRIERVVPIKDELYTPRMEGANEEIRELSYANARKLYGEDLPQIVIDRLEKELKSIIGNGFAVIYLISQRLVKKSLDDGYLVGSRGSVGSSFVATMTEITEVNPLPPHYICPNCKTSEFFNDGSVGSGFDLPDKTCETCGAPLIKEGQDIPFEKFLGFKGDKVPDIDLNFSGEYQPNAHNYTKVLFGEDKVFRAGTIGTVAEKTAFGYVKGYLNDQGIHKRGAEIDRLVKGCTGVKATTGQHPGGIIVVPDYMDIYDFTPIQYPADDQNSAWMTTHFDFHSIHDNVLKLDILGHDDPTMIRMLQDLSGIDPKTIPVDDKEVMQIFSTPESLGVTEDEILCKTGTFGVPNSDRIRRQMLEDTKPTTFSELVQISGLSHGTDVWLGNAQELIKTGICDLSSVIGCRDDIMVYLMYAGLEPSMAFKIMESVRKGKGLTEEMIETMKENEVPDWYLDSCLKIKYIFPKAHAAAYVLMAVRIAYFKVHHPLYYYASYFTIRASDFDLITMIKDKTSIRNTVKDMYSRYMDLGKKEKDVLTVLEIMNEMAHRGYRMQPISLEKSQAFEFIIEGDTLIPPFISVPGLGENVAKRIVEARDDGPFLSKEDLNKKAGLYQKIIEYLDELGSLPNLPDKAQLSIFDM", "assay": "Inhibition of DNA polymerase III with TMAU on different templates", "assay_type": "biochemical", "settings": "templates (CTGA)6-A12 or (CTG)6-A3; 1.25 ng/well enzyme, one hour, GTP […]", "experimental": "DNA polymerase I (E. coli) was purchased from Amersham Bioscience. Recombinant DNA polymerase III from Staphylococus aureus was produced as described (Brown et al 1998). Mammalian DNA polymerase α (calf thymus) and β (human) were purchased from CHIMERx (Milwaukee). DNA polymerase γ was purified from beef heart as described (Pileur et al 2000).\n(2-(N-Morpholino)ethanesulfonic acid) (MES) 40 mM pH 6.8, Potassium acetate (KAc) 40 mM, MgCl2 10 mM, spermine 2 mM, polyoxyethylenesorbitan monolaureate (Tween 20) 0.5%(v/v), EDTA 0.1 mM, dithiothreitol 1 mM and bovine serum albumin (BSA) 50 μg/ml.\n6-anilinouracils are selective inhibitors of DNA polymerase III from gram-positive bacteria. […] The drug TMAU can be regarded as an analogue to […]. […]"}}, "note": "Like-named read-outs stand apart in the source and are kept apart here."}
{"smiles": "C[C@@H](Cn1cnc2c(N)ncnc21)OCP(=O)(O)OP(=O)(O)OP(=O)(O)O", "values": [{"measurement": "Increase of the difference in drug susceptibility between wild type and mutant RT", "setting": "[1]", "result": "approximately 10 fold"}]}
{"smiles": "Nc1ccn(C2CCC(COP(=O)(O)OP(=O)(O)OP(=O)(O)O)O2)c(=O)n1", "note": "(stereo not shown) [ddCTP, 2′3′ dideoxy cytidine triphosphate]", "values": [{"measurement": "IC50", "setting": "[2]", "result": 20, "unit": "nM"}]}
{"smiles": "O=C(O)P(=O)(O)O", "note": "[Foscarnet]", "values": [{"measurement": "IC50", "setting": "[3]; RT amount 20 fg", "result": 600, "unit": "nM"}, {"measurement": "IC50", "setting": "[3]; RT amount 100 fg", "result": 700, "unit": "nM"}, {"measurement": "IC50", "setting": "[2]", "result": 500, "unit": "nM"}]}
{"smiles": "O=c1cc(Nc2ccc3c(c2)CCC3)[nH]c(=O)[nH]1", "note": "[TMAU, 6-([3,4-trimethylene]anilino)uracil]", "values": [{"measurement": "Inhibitory capacity towards DNA polymerase III", "setting": "[4]", "result": "varying inhibitory capacity depending on the sequence of the template used"}]}
{"smiles": "Nc1ncnc2c1ncn2C1CCC(COP(=O)(O)OP(=O)(O)OP(=O)(O)O)O1", "note": "(stereo not shown) [ddATP, 2′3′ dideoxyadenosine triphosphate]", "values": [{"measurement": "IC50", "setting": "[2]", "result": 80, "unit": "nM"}]}
